Experimental data reported in ChEMBL document CHEMBL1212831, “Discovery of N-[(2S)-5-(6-fluoro-3-pyridinyl)-2,3-dihydro-1H-inden-2-yl]-2-propanesulfonamide, a novel clinical AMPA receptor positive modulator” (J Med Chem, 2010).
Active and inactive are the calls of the source. No cut-off for these calls is given here.

Tests used:
Glutamate receptor 2 = Glutamate receptor 2 (Homo sapiens, UniProt P42262)
Description: Activation of human GluR2 flip isoform expressed in HEK293 cells assessed as increase of glutamate-induced intracellular calcium level by FLIPR assay

Cytochrome P450 2D6 = Cytochrome P450 2D6 (Homo sapiens, UniProt P10635)
Description: Inhibition of human CYP2D6 after 10 mins

Cytochrome P450 2C19 = Cytochrome P450 2C19 (Homo sapiens, UniProt P33261)
Sequence of Cytochrome P450 2C19 (P33261 whole entry): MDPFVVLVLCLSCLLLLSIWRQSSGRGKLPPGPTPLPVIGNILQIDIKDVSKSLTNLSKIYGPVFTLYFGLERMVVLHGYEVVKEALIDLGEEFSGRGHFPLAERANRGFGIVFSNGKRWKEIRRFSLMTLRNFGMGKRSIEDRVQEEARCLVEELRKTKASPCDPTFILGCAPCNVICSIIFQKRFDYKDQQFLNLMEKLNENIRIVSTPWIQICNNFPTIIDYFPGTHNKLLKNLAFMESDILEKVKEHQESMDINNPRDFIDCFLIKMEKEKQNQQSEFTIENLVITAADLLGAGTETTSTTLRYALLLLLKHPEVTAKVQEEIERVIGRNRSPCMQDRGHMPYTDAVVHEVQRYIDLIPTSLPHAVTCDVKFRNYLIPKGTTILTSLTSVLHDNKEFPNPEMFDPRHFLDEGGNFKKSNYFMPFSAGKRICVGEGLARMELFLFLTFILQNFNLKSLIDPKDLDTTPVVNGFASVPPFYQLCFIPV
Description: Inhibition of human CYP2C19 after 10 mins

Liver microsomes [1] = tested on: Liver microsomes
Cytochrome P450 3A4 = Cytochrome P450 3A4 (Homo sapiens, UniProt P08684)
Sequence of Cytochrome P450 3A4 (P08684 whole entry): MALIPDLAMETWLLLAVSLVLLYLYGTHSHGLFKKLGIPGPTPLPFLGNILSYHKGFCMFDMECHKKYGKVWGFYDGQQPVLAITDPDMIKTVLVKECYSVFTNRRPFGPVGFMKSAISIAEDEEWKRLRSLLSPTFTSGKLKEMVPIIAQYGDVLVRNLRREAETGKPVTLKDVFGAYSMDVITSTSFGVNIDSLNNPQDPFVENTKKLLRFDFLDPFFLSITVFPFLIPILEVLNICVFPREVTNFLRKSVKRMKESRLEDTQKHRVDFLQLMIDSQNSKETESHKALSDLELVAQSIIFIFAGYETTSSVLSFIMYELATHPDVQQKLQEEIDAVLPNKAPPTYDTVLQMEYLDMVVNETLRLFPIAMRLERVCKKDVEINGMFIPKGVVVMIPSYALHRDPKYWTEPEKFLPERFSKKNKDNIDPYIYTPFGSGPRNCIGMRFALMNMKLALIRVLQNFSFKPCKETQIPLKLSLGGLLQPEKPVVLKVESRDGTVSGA
Description: Inhibition of human CYP3A4 after 10 mins

Liver microsomes [2] = tested on: Liver microsomes; remark: listed apart in the source
Cytochrome P450 2C9 = Cytochrome P450 2C9 (Homo sapiens, UniProt P11712)
Sequence of Cytochrome P450 2C9 (P11712 whole entry): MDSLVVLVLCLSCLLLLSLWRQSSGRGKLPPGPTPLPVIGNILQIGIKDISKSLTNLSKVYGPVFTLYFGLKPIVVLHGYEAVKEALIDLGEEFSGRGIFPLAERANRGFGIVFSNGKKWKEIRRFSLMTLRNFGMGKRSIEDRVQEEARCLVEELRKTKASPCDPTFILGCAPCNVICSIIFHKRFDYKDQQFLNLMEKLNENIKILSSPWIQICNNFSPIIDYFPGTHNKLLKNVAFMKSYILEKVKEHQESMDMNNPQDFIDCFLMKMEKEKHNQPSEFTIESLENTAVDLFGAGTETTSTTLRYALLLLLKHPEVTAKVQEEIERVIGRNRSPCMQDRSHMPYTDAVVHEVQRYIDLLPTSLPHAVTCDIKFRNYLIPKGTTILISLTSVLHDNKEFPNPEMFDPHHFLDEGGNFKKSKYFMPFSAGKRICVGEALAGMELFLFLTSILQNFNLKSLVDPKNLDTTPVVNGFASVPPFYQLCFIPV
Description: Inhibition of human CYP2C9 after 10 mins

Cytochrome P450 1A2 = molecular target: T1, Cytochrome P450 1A2 (Homo sapiens, UniProt P05177)
T1 sequence (P05177 whole entry): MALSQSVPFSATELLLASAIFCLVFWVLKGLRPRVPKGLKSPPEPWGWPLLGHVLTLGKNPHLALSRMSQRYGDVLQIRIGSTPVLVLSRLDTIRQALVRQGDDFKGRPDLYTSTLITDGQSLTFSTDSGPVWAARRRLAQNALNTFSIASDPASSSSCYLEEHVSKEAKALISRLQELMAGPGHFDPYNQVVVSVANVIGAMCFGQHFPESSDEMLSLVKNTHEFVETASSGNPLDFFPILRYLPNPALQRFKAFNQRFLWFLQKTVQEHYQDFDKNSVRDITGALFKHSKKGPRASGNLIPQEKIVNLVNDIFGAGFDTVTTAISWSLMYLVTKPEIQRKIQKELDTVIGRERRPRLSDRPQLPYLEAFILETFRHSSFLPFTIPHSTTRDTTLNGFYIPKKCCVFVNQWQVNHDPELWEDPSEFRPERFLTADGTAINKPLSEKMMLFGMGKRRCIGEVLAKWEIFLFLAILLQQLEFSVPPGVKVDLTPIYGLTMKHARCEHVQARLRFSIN
Description: Inhibition of human CYP1A2 after 10 mins

in vivo = conditions: rat, brain/blood
Description: Ratio of brain AUC (0 to t) to blood AUC (0 to t) in rat

[3] = Plasma protein binding in rat at 1 ug/ml after 6 hrs by equilibrium dialysis method; assay type: ADME, cell-free; conditions: read-out: PPB (converted)
[4] = AUC (0 to t) in rat; assay type: ADME, organism-based; conditions: plasma
MDR1 (human) = assay: in vitro; conditions: dog, MDCK-MDR1
Description: Efflux ratio of permeability from basolateral to apical over apical to basolateral side of MDCK2 cells over expressing human MDR1

[5] = Cmax in Sprague-Dawley rat at 3 mg/kg, po; assay type: ADME, organism-based; design: dose 3 mg/kg, route oral; conditions: in vivo
[6] = Half life in Sprague-Dawley rat at 1 mg/kg, iv and 3 mg/kg, po; assay type: ADME, organism-based; conditions: in vivo
[7] = Blood clearance in Sprague-Dawley rat at 1 mg/kg, iv and 3 mg/kg, po; assay type: ADME, organism-based
[8] = Volume of distribution at steady state in Sprague-Dawley rat at 1 mg/kg, iv and 3 mg/kg, po; assay type: ADME, organism-based; conditions: in vivo, read-out: Vdss
[9] = Oral bioavailability in Sprague-Dawley rat at 3 mg/kg; assay type: ADME, organism-based; conditions: in vivo
[10] = Tmax in Sprague-Dawley rat at 3 mg/kg, po; assay type: ADME, organism-based; design: dose 3 mg/kg, route oral; conditions: in vivo
Brain [11] = assay: Brain tissue binding in rat at 1 ug/ml after 6 hrs by equilibrium dialysis method; assay type: ADME, tissue-based
Blood = assay: Drug level in po dosed Lister Hooded rat blood; assay type: ADME, organism-based; conditions: in vivo
Rattus norvegicus [12] = assay: Antiamnesic activity in po dosed assessed as inhibition of Scopolamine-induced amnesic deficit administered 3 hrs before Scopolamine challenge by step-down passive avoidance test; assay type: functional, organism-based; conditions: Wistar
Rattus norvegicus [13] = assay: Antiamnesic activity in po dosed assessed as inhibition of amnesic deficit by step-down passive avoidance test; assay type: functional, organism-based; conditions: Wistar
Brain [14] = assay: Drug level in po dosed Lister Hooded rat brain assessed per gram of tissue; assay type: ADME, organism-based; conditions: in vivo
Rattus norvegicus [15] = assay: Cognitive enhancing effect in po dosed Lister Hooded rat assessed as reversal of 24 hrs delay-induced retention deficit behavior by novel object recognition assay; assay type: functional; conditions: read-out: MED

Sequence of Glutamate receptor 2 (P42262 whole entry): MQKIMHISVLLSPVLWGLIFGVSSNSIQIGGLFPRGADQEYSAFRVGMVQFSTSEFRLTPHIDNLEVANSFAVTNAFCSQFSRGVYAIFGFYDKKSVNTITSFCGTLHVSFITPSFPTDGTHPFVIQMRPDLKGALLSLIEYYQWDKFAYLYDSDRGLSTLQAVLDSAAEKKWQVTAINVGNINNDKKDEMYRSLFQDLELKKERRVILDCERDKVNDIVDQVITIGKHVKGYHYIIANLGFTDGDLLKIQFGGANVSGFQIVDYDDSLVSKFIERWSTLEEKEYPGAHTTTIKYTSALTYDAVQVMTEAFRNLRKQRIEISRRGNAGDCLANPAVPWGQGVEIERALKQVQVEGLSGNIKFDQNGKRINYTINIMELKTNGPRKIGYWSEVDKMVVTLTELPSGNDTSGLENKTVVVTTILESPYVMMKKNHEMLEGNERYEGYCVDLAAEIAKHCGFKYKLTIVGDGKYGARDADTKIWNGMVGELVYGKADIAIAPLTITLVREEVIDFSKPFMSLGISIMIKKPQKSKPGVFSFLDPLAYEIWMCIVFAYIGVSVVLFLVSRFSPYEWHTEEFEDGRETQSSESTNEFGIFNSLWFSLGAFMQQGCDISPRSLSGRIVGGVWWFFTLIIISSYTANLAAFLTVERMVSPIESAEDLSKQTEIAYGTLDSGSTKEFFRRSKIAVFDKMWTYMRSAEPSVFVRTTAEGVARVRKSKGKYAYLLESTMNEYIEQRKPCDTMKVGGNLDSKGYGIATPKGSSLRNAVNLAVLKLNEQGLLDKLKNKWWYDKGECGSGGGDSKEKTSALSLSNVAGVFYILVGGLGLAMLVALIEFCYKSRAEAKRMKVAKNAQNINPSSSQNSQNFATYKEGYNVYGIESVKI
Sequence of Cytochrome P450 2D6 (P10635 whole entry): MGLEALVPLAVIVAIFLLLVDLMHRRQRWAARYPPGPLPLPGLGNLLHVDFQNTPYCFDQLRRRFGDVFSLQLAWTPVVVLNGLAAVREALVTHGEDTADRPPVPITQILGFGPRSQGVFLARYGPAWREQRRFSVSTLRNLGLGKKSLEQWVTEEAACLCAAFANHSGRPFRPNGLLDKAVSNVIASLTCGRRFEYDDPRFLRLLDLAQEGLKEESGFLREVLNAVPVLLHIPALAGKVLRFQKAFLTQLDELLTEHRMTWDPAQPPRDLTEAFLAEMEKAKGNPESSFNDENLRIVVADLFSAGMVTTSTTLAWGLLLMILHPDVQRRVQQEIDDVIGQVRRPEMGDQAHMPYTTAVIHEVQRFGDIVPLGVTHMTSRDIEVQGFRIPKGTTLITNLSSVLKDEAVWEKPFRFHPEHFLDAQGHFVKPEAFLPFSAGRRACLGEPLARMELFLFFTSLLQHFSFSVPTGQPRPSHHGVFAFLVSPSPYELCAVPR
Description for physchem: Dissociation constant, pKa of the compound

Structure (SMILES)	EC50 (Glutamate receptor 2)	IC50 (Cytochrome P450 2D6)	pKa (physchem)	IC50 (Cytochrome P450 2C19)	IC50 (Liver microsomes [1])	IC50 (Cytochrome P450 3A4)	IC50 (Liver microsomes [2])	IC50 (Cytochrome P450 2C9)	IC50 (Cytochrome P450 1A2)	also measured
CC(C)C(=O)Nc1cccc(-c2ccc3c(c2)CC(NS(=O)(=O)C(C)C)C3)c1 (stereo unspecified)	> 50.1 µM									
CC(C)S(=O)(=O)N[C@@H]1Cc2ccc(-c3ccc(F)nc3)cc2C1		> 10 µM								
CC(C)S(=O)(=O)NC1Cc2ccc(-c3cccc(S(=O)(=O)N(C)C)c3)cc2C1 (stereo unspecified)	7.94 µM									
CC(C)S(=O)(=O)NC1Cc2ccc(-c3cccnc3)cc2C1 (stereo unspecified)	15.8 µM	> 10 µM	5.1	> 10 µM	2.1 µM	> 10 µM	< 0.5 µM	> 10 µM	0.6 µM	
Cc1ccc(-c2ccc3c(c2)CC(NS(=O)(=O)C(C)C)C3)nc1 (stereo unspecified)	3.16 µM	> 10 µM	4.9	> 10 µM	7.3 µM	> 10 µM	0.8 µM	> 10 µM	> 10 µM	
CC(C)S(=O)(=O)NC1Cc2ccc(-c3cccnc3F)cc2C1 (stereo unspecified)	15.8 µM	> 10 µM		9 µM	2.5 µM	> 10 µM	2.1 µM	> 10 µM	> 10 µM	Kp (in vivo): 1.5
CC(C)S(=O)(=O)NC1Cc2ccc(-c3cccc(NS(C)(=O)=O)c3)cc2C1 (stereo unspecified)	0.794 µM									fraction unbound at 6 h, 1 ug/ml [3]: 0.041; AUC(0-t) [4]: 1130 ng·h/mL; efflux ratio (MDR1 (human)): 5.8; Kp (in vivo): 0.1
CC(C)S(=O)(=O)NC1Cc2ccc(-c3ccc(F)cn3)cc2C1 (stereo unspecified)	6.31 µM	> 10 µM	2.7	> 10 µM	0.6 µM	> 10 µM	0.5 µM	> 10 µM	> 10 µM	
Cc1ccc(-c2ccc3c(c2)C[C@@H](NS(=O)(=O)C(C)C)C3)cn1	2 µM	> 10 µM	5.8	> 10 µM	3.5 µM	> 10 µM	< 0.6 µM	> 10 µM	> 10 µM	Cmax [5]: 116 ng/mL; half-life [6]: 36 min; clearance [7]: 55 mL/min/kg; fraction unbound at 6 h, 1 ug/ml [3]: 0.078; Vd [8]: 2.4 L/kg; bioavailability [9]: 25%; Tmax [10]: 60 min; Activity (Brain [11]): 96.7%; efflux ratio (MDR1 (human)): 0.9; Kp (in vivo): 1.3
CC(C)S(=O)(=O)NC1Cc2ccc(-c3ccc(F)nc3)cc2C1 (stereo unspecified)		> 10 µM		> 10 µM	1.1 µM	> 10 µM	1.7 µM	> 10 µM	> 10 µM	
Cc1ccncc1-c1ccc2c(c1)CC(NS(=O)(=O)C(C)C)C2 (stereo unspecified)	20 µM	> 10 µM	5.8	> 10 µM	4.5 µM	> 9 µM	1.4 µM	> 10 µM	> 10 µM	
Cc1ccc(-c2ccc3c(c2)CC(NS(=O)(=O)C(C)C)C3)cn1 (stereo unspecified)	3.16 µM	> 10 µM	5.7	> 10 µM	2 µM	> 10 µM	0.7 µM	> 10 µM	> 10 µM	Kp (in vivo): 1.4
CC(C)S(=O)(=O)N[C@H]1Cc2ccc(-c3ccc(F)cn3)cc2C1	2 µM	> 10 µM	2.7	> 10 µM	1.6 µM	> 10 µM	< 0.5 µM	> 10 µM	> 10 µM	Cmax [5]: 436 ng/mL; half-life [6]: 60 min; clearance [7]: 24 mL/min/kg; Drug uptake (Blood): 37 ng/mL; fraction unbound at 6 h, 1 ug/ml [3]: 0.097; Vd [8]: 2.2 L/kg; bioavailability [9]: 72%; Activity (Rattus norvegicus [12]): Dose-dependent effect; inhibition (Rattus norvegicus [13]): inactive; Tmax [10]: 30 min; Drug uptake (Brain [14]): 70 ng/g; Activity (Brain [11]): 97.9%; efflux ratio (MDR1 (human)): 1.1; Kp (in vivo): 1.4; minimal effective dose (Rattus norvegicus [15]): 0.3 mg/kg
CC(C)S(=O)(=O)NC1Cc2ccc(-c3cccc(CN4CCCS4(=O)=O)c3)cc2C1 (stereo unspecified)	0.398 µM									fraction unbound at 6 h, 1 ug/ml [3]: 0.033
CC(C)S(=O)(=O)NC1Cc2ccc(-c3cccc(CN4CCCC4=O)c3)cc2C1 (stereo unspecified)	12.6 µM									fraction unbound at 6 h, 1 ug/ml [3]: 0.024; AUC(0-t) [4]: 36 ng·h/mL; Kp (in vivo): 0.4
CC(=O)c1cccc(-c2ccc3c(c2)CC(NS(=O)(=O)C(C)C)C3)c1 (stereo unspecified)	> 50.1 µM									
CC(=O)Cc1cccc(-c2ccc3c(c2)CC(NS(=O)(=O)C(C)C)C3)c1 (stereo unspecified)	6.31 µM									
CCS(=O)(=O)Nc1cccc(-c2ccc3c(c2)CC(NS(=O)(=O)C(C)C)C3)c1 (stereo unspecified)	2.51 µM									
Cc1cccnc1-c1ccc2c(c1)CC(NS(=O)(=O)C(C)C)C2 (stereo unspecified)	20 µM	> 10 µM	4.9	> 10 µM	14 µM	> 10 µM	1.3 µM	> 10 µM	> 10 µM	
CC(C)S(=O)(=O)NC1Cc2ccc(-c3cccc(N(C)S(C)(=O)=O)c3)cc2C1 (stereo unspecified)	1.26 µM									fraction unbound at 6 h, 1 ug/ml [3]: 0.036; AUC(0-t) [4]: 161 ng·h/mL; efflux ratio (MDR1 (human)): 3.2; Kp (in vivo): 0.4
CC(C)S(=O)(=O)NC1Cc2ccc(-c3ccc(Cl)cn3)cc2C1 (stereo unspecified)	7.94 µM	> 10 µM		> 10 µM	< 0.8 µM	> 10 µM	< 0.5 µM	> 10 µM	> 10 µM	
CC(C)S(=O)(=O)NC1Cc2ccc(-c3cncc(C#N)c3)cc2C1 (stereo unspecified)	63.1 µM	> 10 µM		> 10 µM	< 0.5 µM	> 10 µM	0.7 µM	> 10 µM	> 10 µM	
CC(=O)Nc1cccc(-c2ccc3c(c2)CC(NS(=O)(=O)C(C)C)C3)c1 (stereo unspecified)	20 µM									fraction unbound at 6 h, 1 ug/ml [3]: 0.051
CC(C)S(=O)(=O)NC1Cc2ccc(-c3cccc(C#N)c3)cc2C1 (stereo unspecified)	> 50.1 µM									
CC(C)S(=O)(=O)NC[C@H](C)c1ccc(NC(=O)c2cc(F)cc(F)c2)cc1	0.398 µM									
